US20160232293A1, “DRUG SENSITIVITY BIOMARKERS AND METHODS OF IDENTIFYING AND USING DRUG SENSITIVITY BIOMARKERS” (SANFORD-BURNHAM MEDICAL RESEARCH INSTITUTE, priority 2013, published 2016)

Assays:
human cancer cell lines = test: e-Drug analysis: CCLE drug activity (activity area) in cell lines with missense mutations in a protein functional region (PFR) or whole protein versus cell lines without; type: cell-based
Text: The CCLE (Cancer Cell Line Encyclopedia; website broadinstitute.org/ccle; Barretina et al., Nature 483:603-607 (2012)) dataset, which includes the mutation profiles of 1,668 genes in 906 human cancer cell lines and drug activity data for 24 different anticancer compounds, was used in the present study. The analysis was focused on missense mutations, as truncating mutations can sometimes be misleading when performing the analysis in terms of functional regions. For example, when analyzing a protein that contains two different domains, if a truncating mutation happens in the first domain, it is not obvious whether the functional consequences of the mutation are caused by the fact that the first domain is altered or that the second domain is missing. […] From the original 42,603 genomic-point mutations in 1,668 genes, 156,817 protein missense mutations were obtained in 9,311 proteins.
CCLE contains data on the drug activity of 24 different compounds in 479 cell lines from 8-point dose-response curves. […] In our analysis only the activity area was used because, according to the CCLE, it captures simultaneously both variables of drug activity: its efficacy and its potency.
For the present study, protein functional regions were defined as domains or intrinsically disordered regions. […] To identify protein domains, annotated Pfam domains were retrieved from ENSEMBL for each protein isoform. A set of 1,300 potential domains identified by AIDA (ab initio domain assembly; Xu et al., Nucleic Acids Research 12:W308-W313 (2014) (Web Server issue); Internet site ffas.burnham.org/AIDA/), an algorithm based on remote homology, were also included. Foldindex (Prilusky et al., Bioinformatics 21(16):3435-8 (2005)) was used to predict intrinsically disordered regions for each protein. Those regions with a predicted unfolded score below −0.1 were included in the present study.
The different mutations of each cell line were mapped to these protein features, giving a total of 30,798 altered regions in 906 cell lines. These regions are divided into 19,918 Pfam domains and 10,880 intrinsically disordered regions. Note that the features can overlap, as the predictions were performed independently and there is no reason why, for example, an intrinsically unfolded region cannot overlap with (or even be located within) a Pfam domain. Note also that these numbers refer to PFRs in all known protein isoforms according to ENSEMBL v72.
The e-Drug analysis protocol looks for PFRs that, when mutated, correlate with drug activity of the different drugs. […] A Wilcoxon test was then performed comparing the drug activity of each compound in the two groups and kept those with a p-value below 0.01. Finally, for those gene regions associated to a certain drug, the activity of the cell lines mutated in the region of interest was compared to the activity of cell lines mutated in other regions of the gene. […] In this case, since the number of cell lines in both groups is lower and fewer tests were performed, a significance threshold of 0.05 instead of 0.01 was established. True positives were considered those PFR that passed both thresholds and that are not in proteins that show an association (p<0.01) with the same drug at the whole-protein level. Note that the analysis is performed independently for each PFR.
To overcome these limitations and decrease the number of false positives among the associations three different thresholds were required for an association to be considered positive (see

[1] = TCGA survival analysis of patients treated with CCLE drugs, grouped by mutations in resistance-associated PFRs; type: in vivo, human; conditions: for outcome of treated patients with mutations in PFRs associated with resistance vs mutations in other regions of the same proteins or no mutations: TCGA patients treated with Topoisomerase inhibitors Irinotecan and Topotecan (n=188), pooled, p<0.01; for prediction of patient outcome by mutation status of the whole proteins that contain the associated PFRs: TCGA patients treated with Topoisomerase inhibitors, whole-protein level
Text: Both clinical and mutation data for the 3,205 tumors described in the pan-cancer analysis of the TCGA were downloaded. Data from patients that had not been treated with any of the drugs included in the CCLE was then filtered out. Since most drugs included in the CCLE are still in under clinical research, there were only enough patients to analyze 2 different drugs: paclitaxel (n=778) and irinotecan (n=58). Each of these subsets of patients have then been classified in 3 groups: those that have a mutation in a PFR that, according to the analysis, increases resistance to the drug used to treat them; those with mutations in other regions of the same genes; and those with no mutations in these genes.
As a result very few patients in the TCGA dataset carry mutations in the former type of regions and were treated with the matching drug. The survival analysis was performed using the “Survival” package for R.

Cn1c(Nc2ccc(C(F)(F)F)cc2)nc2cc(Oc3ccnc(-c4ncc(C(F)(F)F)[nH]4)c3)ccc21 [RAF265]
drug activity associated with mutations in the ATPase domain (Pf00488) of MSH6 (human cancer cell lines; PFR level, missense mutations, MSH6 Pf00488): higher

CCc1c2c(nc3ccc(OC(=O)N4CCC(N5CCCCC5)CC4)cc13)-c1cc3c(c(=O)n1C2)COC(=O)[C@]3(O)CC [Irinotecan]
outcome of treated patients with mutations in PFRs associated with resistance vs mutations in other regions of the same proteins or no mutations [1]: worse outcomes | prediction of patient outcome by mutation status of the whole proteins that contain the associated PFRs ([1]; p>0.9): cannot predict the outcome

CS(=O)(=O)CCNCc1ccc(-c2ccc3ncnc(Nc4ccc(OCc5cccc(F)c5)c(Cl)c4)c3c2)o1 [Lapatinib]
drug activity associated with mutations in the connector domain (Pf05188) of MSH6 (human cancer cell lines; PFR level, missense mutations, MSH6 Pf05188): higher

C#Cc1cccc(Nc2ncnc3cc(OCCOC)c(OCCOC)cc23)c1 [Erlotinib]
association of MSH6 mutations with the drug at protein level (human cancer cell lines; protein level analysis, MSH6 whole protein): potential association

C[C@@H](Oc1cc(-c2cnn(C3CCNCC3)c2)cnc1N)c1c(Cl)ccc(F)c1Cl [PF2341066]
sensitivity of cell lines with mutations in the ERBB3 receptor domain (human cancer cell lines; PFR level analysis, N-terminal EGF receptor domain of ERBB3): resistant | behavior of cell lines with mutations in any other PFR of ERBB3 (human cancer cell lines; PFR level analysis, other PFRs of ERBB3 such as the kinase domain): do not show any specific behavior | activity of the drug in cell lines with mutations in ERBB3 (human cancer cell lines; protein level analysis, ERBB3 whole protein): do not show any bias

CC[C@@]1(O)C(=O)OCc2c1cc1n(c2=O)Cc2cc3c(CN(C)C)c(O)ccc3nc2-1 [Topotecan]
outcome of treated patients with mutations in PFRs associated with resistance vs mutations in other regions of the same proteins or no mutations [1]: worse outcomes | prediction of patient outcome by mutation status of the whole proteins that contain the associated PFRs ([1]; p>0.9): cannot predict the outcome

CC(=O)O[C@H]1C(=O)[C@@]2(C)[C@H]([C@H](OC(=O)c3ccccc3)[C@]3(O)C[C@H](OC(=O)[C@H](O)[C@@H](NC(=O)c4ccccc4)c4ccccc4)C(C)=C1C3(C)C)[C@]1(OC(C)=O)CO[C@@H]1C[C@@H]2O [Paclitaxel]
outcome of treated patients with mutations in PFRs associated with increased resistance ([1]; TCGA patients treated with paclitaxel (n=778), p>0.9): no differences
